Laboratory results as given in patent US10106853B2, “CUL4B as predictive biomarker for cancer treatment” (CORNELL UNIVERSITY, priority 2012, dated 2018).

Legend:
BT474 xenograft tumors = format: in vivo, athymic Nu/J nude mice; settings: without topotecan administration; tumor burden and excised tumor weight
Method: FIG. 5. CUL4B inactivation sensitized BT474 xenograft tumors to topotecan. Stable TGL-BT474 cells (BT474 cells stably expressing GFP-luciferase reporter) were established by retroviral transduction and FACS sorting. The resulting TGL-BT474 cells were infected with recombinant lentiviruses expressing non-targeting shCtrl, shCUL4A or shCUL4B, followed by selection of infected cells with 4 μg/ml puromycine for one week. A) Knockdown of endogenous CUL4A and 4B were verified by immunoblotting. B, C) 1×10^7 of control, CUL4A^k/d, or CUL4B^k/d TGL-BT474 cells were injected subcutaneously in the right flank of each athymic Nu/J nude mice, treated (i.p.) with toptoecan at a dose of 5 mg/g on every 4th day, and tumor burden was measure by bioluminescent imaging. Statistical significance in tumor burden between control and CUL4A^k/d or CUL4B^k/d xenograph are assessed by a two-tailed unpaired student t-test (***: p<0.001). D) Growth rate of control, CUL4A^k/d and CUL4B^k/d BT474 cells in vitro. The same number of control, CUL4A^k/d and CUL4B^k/d BT474 cells were seeded to 96-well plates and cell proliferation was measured using the XTT Cell Proliferation Assay Kit. The data represent the mean value of fold change of cells. Bars indicate the S.E. of six independent experiments. Statistical significance in cellular rate between control cells and CUL4A^k/d or CUL4B^k/d cells are assessed by student's t-test. E-F) Growth rate of control, CUL4A^k/d and CUL4B^k/d TGL-BT474 xenograft in vivo. 1×10^7 of control, CUL4A^k/d or CUL4B^k/d TGL-BT474 cells were injected subcutaneously in the right flank of each mouse of athymic Nu/J nude mice, and tumor burden was measured by bioluminescent imaging (E). On the 22nd day, tumors were collected, and the weight of exercised tumors was measured after mice were sacrificed (F).
The effect of CUL4B knockdown on an organism's response to CPT treatment was tested in vivo by examining the sensitivity of BT474-CUL4B^k/d, BT474-CUL4A^k/d and control BT474 xenograft tumors to topotecan treatment. Topotecan, (S)-10-[(dimethylamino)methyl]-4-ethyl-4,9-dihydroxy-1H-pyrano[3′,4′:6,7]indolizino[1,2-b]quinoline-3,14(4H,12H)-dione monohydrochloride, is an FDA-approved Top1-directed chemotherapy for the treatment of ovarian, cervical and small cell lung cancer, under the trade name Hycamtin™. Nude mice bearing BT474 xenografts on dorsal skin were treated with topotecan every four (4) days for a period of 44 days. Prior to topotecan administration, the size of the xenograft tumors were identical (FIG. 5). Topotecan was then administered via intraperitoneal injection, and tumor mass was monitors by bioluminescent imaging in four day intervals. […] To rule out the possibility that the growth rate of xenografts were altered during the CUL4B inactivation process (treatment with shRNA) the tumor mass of the three xenograft groups were measured in the absence of topotecan treatment and the weight of the exercised xenograft tumors were analyzed.
Six week old Female athymic Nu/J nude mice were purchased from Jackson Labs. Mice were housed in laminar air-flow cabinets under specific pathogen-free conditions. Nude mice were inoculated with 0.36 mg 60-day-release 17-b-estradiol pellets (Innovative Research) 24 to 48 hours before implantation of BT-474 cells. 1×10^7 BT-474 cells in 50 ul DMEM medium and 300 ul diluted BD Matrigel™ Basement Membrane Matrix (BD Bioscience, Matrix: PBS is 2:1) were injected subcutaneously in the right flank of each mouse. Tumors were detected once every four days by an IVIS Imaging System (Caliper Life Sciences). When tumors were available to be detected, mice were initially treated with topotecan. Topotecan was administered intraperitoneally on every fourth day from the initiation of therapy at doses of 5 mg/g.
The IVIS Imaging System (Caliper life sciences) was used for bioluminescent image acquisition and analysis. […]

T47D cells = test: XTT assay for cytotoxic response to camptothecin, T47D; format: cell-based, Human
BT474 cells = test: Apoptosis by Western blotting of cleaved caspase-3 and PARP; format: cell-based, Human; settings: CUL4B-silenced BT474 cells vs control cells
Method: FIG. 4. Marked enhancement of apoptosis in BT474-CUL4B^k/d cells following CPT treatment. A, B) Control (shCtrl) or CUL4B^k/d BT474 (shCUL4B) cells were treated with indicated concentrations of CPT for 72 hours (A) or 100 nM CPT for 1, 2 and 3 days (B). Cells were then lysed and immunoblotted with antibodies against native or cleaved caspase 3 or PARP to measure the induction of apoptosis. C) Control, CUL4A^k/d and CUL4B^k/d BT474 cells were treated with 100 nM CPT for 3 days. Cell lysates were prepared and immunoblotted with antibodies against native or cleaved PARP.
DNA double stranded breaks are one of the most cytotoxic lesions as persistence of γH2AX foci after the initial induction of DNA damage leads to apoptosis. To examine whether CUL4B knockdown affects the sensitivity of breast cancer cells to CPT-induced apoptosis, BT474 cells were treated with CPT and analyzed for induction of apoptosis, as exemplified by cleavage of caspase-3 and PARP.

Compound: shCUL4B: lentiviral shRNA CUL4B sequence purchased from Sigma Aldrich, reduces CUL4B expression (CCGGGCAGAATTTAAAGAGGGTAAACTCGAGTTTACCCTCTTTAAATTCTGCTTTTT)
- Growth rate of xenografts vs control (BT474 xenograft tumors): no significant difference

Compound: CC[C@@]1(O)C(=O)OCc2c1cc1n(c2=O)Cc2cc3ccccc3nc2-1 [CPT, (S)-4-ethyl-4-hydroxy-1H-pyrano[3′,4′:6,7]indolizino[1,2-b]quinoline-3,14-(4H, 12H)-dione]
- Survival rate of CPT-treated cells (T47D cells; T47D cells with knockdown of CUL4A): no effect
- Cytotoxic killing by CPT (cell survival) (T47D cells; T47D cells with knockdown of CUL4B, CPT three days): sensitized
- Induction of apoptosis (cleaved caspase-3 and PARP) post-CPT treatment (BT474 cells): robust induction of apoptosis
